# Source: patent US9801925B2, “Potentiation of glucose elimination” (MannKind Corporation, priority 1999, dated 2017)
# Test: Excretion of FDKP after pulmonary administration of Technosphere particles
# Assay type: in vivo
# From the text: Technosphere® refers to a diketopiperazine-based drug delivery system which can complex and stabilize peptides in small particles. Diketopiperazines, particularly fumaryl diketopiperazine (FDKP), self-assemble into microparticles with a mean diameter of about 2 microns. In the process it can entrap or complex with peptides, such as insulin, present in the solution during or after self-assembly. Once dried, these microparticles become a suitable composition for pulmonary delivery to the systemic circulation. When administered by the pulmonary route, Technosphere® particles dissolve in the pH neutral environment of the deep lung and facilitate the rapid and efficient absorption of the peptide into systemic circulation.
compound,measurement,value
"O=C(O)/C=C/C(=O)NCCCCC1NC(=O)C(CCCCNC(=O)/C=C/C(=O)O)NC1=O (stereo not shown) [FDKP, 3,6-di(fumaryl-4-aminobutyl)-2,5-diketopiperazine]",excretion,excreted un-metabolized in the urine within hours of administration
